Test systems include CCRF-CEM; COLO 205; HT-29; IGROV-1; KM12; MCF7; MDA-MB-231; MDA-N; NCI-H226; NCI-H460; OVCAR-5; SF-268; SK-OV-3; SN12C; T47D; UACC-62; NCI-H522.
What all share (assay): growth of human tumour cells (NCI), 48 h

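Test compounds were applied to cells in 96-well plates for 48 hours at 5 doses. GI50 marks 50% less growth.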 Activity calls are given as the source filed them. Cut-off read from the data, not from the text of the source: active = GI50 up to about 1.1 µM and inactive = higher. Residues, ends and D or L forms follow the SMILES beside them. *: point of attachment. Cbz = O=C(OCc1ccccc1)*

As for `CN(C)CCCNC(=O)c1cc(NC(=O)CCCn2c3ccccc3c3ccccc32)cn1C`, the GI50 was 29.6 µM (inactive) in the experiment on CCRF-CEM; 21.9 µM (inactive) in the experiment with COLO 205; 47.6 µM (inactive) with HT-29; 6.64 µM (inactive) in the experiment on IGROV-1; 21.4 µM (inactive) in the experiment with KM12; 35.5 µM (inactive) in the experiment on MCF7. Further, the GI50 with MDA-MB-231 is 21 µM (inactive); in the experiment with MDA-N it was 35.1 µM (inactive); with NCI-H226, 25.3 µM (inactive); with NCI-H460, 28.8 µM (inactive); with OVCAR-5, 73.6 µM (inactive); in the experiment with SF-268 it was 66.7 µM (inactive). Also, the GI50 is > 100 µM (inactive) with SK-OV-3, 48.5 µM (inactive) in the experiment on SN12C, 19.1 µM (inactive) in the experiment on T47D and 20.8 µM (inactive) in the experiment on UACC-62.

For `N=C(N)c1ccc(/C=C/c2ccc(C(=N)N)cc2)cc1`, the GI50 in the experiment with CCRF-CEM was > 100 µM (inactive); with HT-29, 93.1 µM (inactive); in the experiment on IGROV-1, 70.8 µM (inactive); in the experiment on KM12, > 100 µM (inactive); with MCF7 it was 96.6 µM (inactive); with MDA-MB-231 it was > 100 µM (inactive). For the same compound, the GI50 was > 100 µM (inactive) in the experiment with MDA-N; > 100 µM (inactive) in the experiment with NCI-H226; 34.5 µM (inactive) in the experiment with NCI-H460; 63.2 µM (inactive) with NCI-H522; 81.8 µM (inactive) in the experiment with OVCAR-5; > 100 µM (inactive) in the experiment on SF-268. The figures for the GI50 in the experiment with SN12C, with T47D and with UACC-62 were 22.7 µM (inactive), > 100 µM (inactive) and 97.9 µM (inactive), respectively.

For the compound `Oc1c(N2CCCCC2)cc(-c2cc(N3CCCCC3)c(O)c3ccccc23)c2ccccc12`, the GI50 in the experiment on CCRF-CEM is 30.2 µM (inactive); in the experiment on COLO 205, 26.2 µM (inactive); with HT-29, 23 µM (inactive); with IGROV-1, 43.7 µM (inactive); with KM12 it was 64.1 µM (inactive); in the experiment on MCF7, 22.9 µM (inactive). The GI50 in the experiment with MDA-MB-231 was 39.8 µM (inactive); in the experiment with MDA-N it was 17 µM (inactive); with NCI-H226, > 100 µM (inactive); in the experiment with NCI-H460, 43 µM (inactive); in the experiment with OVCAR-5, 72.4 µM (inactive); in the experiment on SF-268 it was 26 µM (inactive). The GI50 was > 100 µM (inactive) in the experiment on SK-OV-3, 27.6 µM (inactive) in the experiment with SN12C, 32.4 µM (inactive) with T47D and 21.1 µM (inactive) in the experiment on UACC-62.

As to `COc1c(C)c(OC)c2c(c1O)[C@@H]1[C@@H]3Cc4c(OC)c(C)c(OC)c(O)c4[C@H](CNC(=O)c4ccc5ccccc5n4)N3[C@@H](C#N)[C@H](C2)N1C`, the GI50 is 0.000891 µM (active) in the experiment with COLO 205; 0.000893 µM (active) with HT-29; 0.000147 µM (active) in the experiment with IGROV-1; 0.000371 µM (active) in the experiment with KM12; 0.000424 µM (active) in the experiment on MCF7; 0.00159 µM (active) in the experiment with MDA-MB-231. The GI50 is 0.000807 µM (active) with MDA-N; 0.00143 µM (active) in the experiment on NCI-H226; 0.00224 µM (active) in the experiment with NCI-H460; 0.000144 µM (active) in the experiment with NCI-H522; 0.000726 µM (active) in the experiment on OVCAR-5; 0.000883 µM (active) in the experiment on SF-268. Moreover, the GI50 in the experiment on SN12C is 0.00103 µM (active); in the experiment on T47D it was 0.000277 µM (active); in the experiment with UACC-62, 0.000411 µM (active).

As for `Cc1cccc(-n2c(C)nc3ccc(NC4OC(CO)C(O)C(O)C4O)cc3c2=O)c1` (stereo unspecified), the GI50 in the experiment with COLO 205, in the experiment on HT-29, in the experiment on IGROV-1, with KM12, with MCF7 and in the experiment with MDA-MB-231 was > 100 µM (inactive) throughout. The GI50 in the experiment on MDA-N, in the experiment on NCI-H226, in the experiment with NCI-H460, with NCI-H522, in the experiment on OVCAR-5 and in the experiment with SF-268 was > 100 µM (inactive) in each case. For the same compound, the GI50 with SN12C, with T47D and in the experiment with UACC-62 was > 100 µM (inactive) each time.

As to `CN1CCCN2CCN(C)CCN(CC1)CC2`, the GI50 in the experiment on CCRF-CEM, in the experiment with COLO 205, in the experiment on HT-29, in the experiment with IGROV-1, in the experiment with KM12 and in the experiment with MCF7 was > 100 µM (inactive) throughout. For the same compound, the GI50 with MDA-MB-231, with MDA-N, in the experiment with NCI-H460, in the experiment with NCI-H522, in the experiment on OVCAR-5 and with SF-268 was > 100 µM (inactive) in each case. The GI50 with SK-OV-3, in the experiment on SN12C, in the experiment with T47D and in the experiment with UACC-62 was > 100 µM (inactive) each time.

Regarding `CCOC(=O)C(C(N)=O)C1=Nc2cc([N+](=O)[O-])ccc2N/C1=C\C(=O)c1ccccc1` (stereo unspecified), the GI50 is 17.9 µM (inactive) in the experiment with COLO 205; 16.5 µM (inactive) with HT-29; 11.2 µM (inactive) in the experiment on IGROV-1; 12.1 µM (inactive) in the experiment on KM12; 12.4 µM (inactive) in the experiment on MCF7; 13.3 µM (inactive) with MDA-MB-231. In addition, the GI50 in the experiment with MDA-N was 18.7 µM (inactive); with NCI-H226, 31.3 µM (inactive); with NCI-H460, 13.4 µM (inactive); with NCI-H522, 14.9 µM (inactive); with OVCAR-5, 24 µM (inactive); in the experiment on SF-268 it was 12.7 µM (inactive). In addition, the GI50 was 14.1 µM (inactive) in the experiment on SK-OV-3, 23.1 µM (inactive) in the experiment with SN12C, 26 µM (inactive) in the experiment on T47D and 17.3 µM (inactive) with UACC-62.

On to `COc1cccc(-c2ccc3c4c2O[C@H]2c5[nH]c6ccccc6c5C[C@@]5(O)[C@@H](C3)N(CC3CC3)CC[C@]425)c1`, for which the GI50 is 3.29 µM (inactive) in the experiment on CCRF-CEM; 1.81 µM (inactive) with COLO 205; 1.7 µM (inactive) in the experiment with HT-29; 1.64 µM (inactive) with IGROV-1; 1.85 µM (inactive) with KM12; 1.69 µM (inactive) in the experiment with MCF7. In addition, the GI50 in the experiment on MDA-MB-231 was 0.14 µM (active); with MDA-N, 1.85 µM (inactive); in the experiment with NCI-H226, 6.84 µM (inactive); in the experiment on NCI-H460, 1.79 µM (inactive); in the experiment with NCI-H522 it was 1.15 µM (inactive); in the experiment on OVCAR-5 it was 7.08 µM (inactive). For the same compound, the GI50 in the experiment with SF-268 was 1.61 µM (inactive); in the experiment on SN12C it was 1.67 µM (inactive); in the experiment with T47D, 2.1 µM (inactive); with UACC-62 it was 1.67 µM (inactive).

On to `CC(NC(=O)C(NC(=O)OCc1ccccc1)C(C)C)C(=O)NCC(=O)O` (stereo not drawn) (Cbz-Val-Ala-Gly-OH; configuration not given here), for which the GI50 with COLO 205, in the experiment with HT-29, with IGROV-1, in the experiment on KM12, in the experiment with MCF7 and in the experiment with MDA-MB-231 was > 100 µM (inactive) throughout. For the same compound, the GI50 in the experiment with MDA-N, with NCI-H226, in the experiment on NCI-H460, in the experiment on NCI-H522, in the experiment with OVCAR-5 and with SF-268 was > 100 µM (inactive) throughout. Moreover, the GI50 in the experiment with SK-OV-3, with SN12C, with T47D and in the experiment on UACC-62 was > 100 µM (inactive) throughout.

These data come from ChEMBL document CHEMBL1201862, “PubChem BioAssay data set” (2004).
